The source made the active and inactive calls. The rule behind the calls is not given here.
Columns and labels:
ZR-75-30 [1] = assay: Induction of apoptosis in tamoxifen-induced senescent human ZR-75-30 cells assessed as decrease in HSP90 level incubated for 24 hrs by immunostaining based imaging cytometric analysis; format: functional, cell-based
HCC1500 [2] = assay: Anticancer activity against ER-positive human HCC1500 cells assessed as effect on metabolic activity upto 10 uM incubated for 24 hrs by MTT assay; format: functional, cell-based
ZR-75-30 [3] = assay: Induction of apoptosis in human ZR-75-30 cells assessed as phosphatidylserine externalization at 1 to 5 uM incubated for 24 hrs by Annexin V-FITC staining based flow cytometric analysis; format: functional, cell-based; details: dose 1-5 µM
[4] = biological target: Receptor-interacting serine/threonine-protein kinase 3 (Homo sapiens) (UniProt Q9Y572); assay: Induction of RIP3 phosphorylation in human HCC1428 cells at 1 to 5 uM incubated for 24 hrs by Western blot analysis; format: cell-based; details: dose 1-5 µM
Sequence of Receptor-interacting serine/threonine-protein kinase 3 (Homo sapiens) (Q9Y572 whole entry, looked up, the tested form may be a part): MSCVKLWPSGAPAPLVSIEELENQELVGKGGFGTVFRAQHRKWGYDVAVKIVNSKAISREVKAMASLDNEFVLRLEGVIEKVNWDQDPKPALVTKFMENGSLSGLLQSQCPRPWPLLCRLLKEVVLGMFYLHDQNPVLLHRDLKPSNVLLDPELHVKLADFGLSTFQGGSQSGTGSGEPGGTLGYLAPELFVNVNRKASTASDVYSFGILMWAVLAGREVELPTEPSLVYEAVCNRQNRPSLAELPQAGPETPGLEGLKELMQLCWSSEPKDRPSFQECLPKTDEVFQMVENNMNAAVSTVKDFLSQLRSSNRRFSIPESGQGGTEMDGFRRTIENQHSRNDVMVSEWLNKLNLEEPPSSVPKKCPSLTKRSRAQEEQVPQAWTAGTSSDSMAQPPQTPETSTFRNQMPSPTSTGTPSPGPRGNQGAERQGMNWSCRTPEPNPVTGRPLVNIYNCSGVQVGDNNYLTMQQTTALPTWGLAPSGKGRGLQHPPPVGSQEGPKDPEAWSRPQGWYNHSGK

[5] = biological target: T1, Mixed lineage kinase domain-like protein (Homo sapiens) (UniProt Q8NB16); assay: Induction of MLKL phosphorylation in human HCC1428 cells at 1 to 5 uM incubated for 24 hrs by Western blot analysis; format: cell-based; details: dose 1-5 µM
T1 sequence (whole entry): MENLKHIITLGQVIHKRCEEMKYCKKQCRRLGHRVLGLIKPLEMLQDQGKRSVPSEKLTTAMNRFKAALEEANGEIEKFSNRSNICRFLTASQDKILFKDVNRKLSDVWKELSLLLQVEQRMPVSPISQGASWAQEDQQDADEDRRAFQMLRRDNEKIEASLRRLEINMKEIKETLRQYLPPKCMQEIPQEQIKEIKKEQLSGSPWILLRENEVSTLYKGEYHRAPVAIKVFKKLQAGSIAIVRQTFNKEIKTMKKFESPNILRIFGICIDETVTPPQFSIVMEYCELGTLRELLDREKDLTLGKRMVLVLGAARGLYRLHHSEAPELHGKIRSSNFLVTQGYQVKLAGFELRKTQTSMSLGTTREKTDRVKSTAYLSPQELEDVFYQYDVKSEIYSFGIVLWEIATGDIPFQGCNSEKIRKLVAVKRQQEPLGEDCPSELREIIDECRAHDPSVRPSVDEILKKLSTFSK

HCC1428 [6] = assay: Induction of mitochondrial dysfunction in human HCC1428 cells assessed as increase in proton leak at 5 uM incubated for 6 hrs by real time analysis; format: functional, cell-based
HCC1500 [7] = assay: Induction of senescence in human HCC1500 cells assessed as increase in IL-8 level at 5 uM incubated for 24 hrs by immunostaining based imaging cytometric analysis; format: functional, cell-based
[8] = biological target: RAC-alpha serine/threonine-protein kinase (Homo sapiens) (UniProt P31749); assay: Binding affinity to recombinant human AKT (14 to 276 residues) assessed as interaction by measuring decrease in chemiluminescence signal at 0.01 to 5 uM incubated overnight by dot-blot analysis; details: dose 0.01-5 µM
Sequence of RAC-alpha serine/threonine-protein kinase (Homo sapiens) (P31749 whole entry, the tested form may be a part): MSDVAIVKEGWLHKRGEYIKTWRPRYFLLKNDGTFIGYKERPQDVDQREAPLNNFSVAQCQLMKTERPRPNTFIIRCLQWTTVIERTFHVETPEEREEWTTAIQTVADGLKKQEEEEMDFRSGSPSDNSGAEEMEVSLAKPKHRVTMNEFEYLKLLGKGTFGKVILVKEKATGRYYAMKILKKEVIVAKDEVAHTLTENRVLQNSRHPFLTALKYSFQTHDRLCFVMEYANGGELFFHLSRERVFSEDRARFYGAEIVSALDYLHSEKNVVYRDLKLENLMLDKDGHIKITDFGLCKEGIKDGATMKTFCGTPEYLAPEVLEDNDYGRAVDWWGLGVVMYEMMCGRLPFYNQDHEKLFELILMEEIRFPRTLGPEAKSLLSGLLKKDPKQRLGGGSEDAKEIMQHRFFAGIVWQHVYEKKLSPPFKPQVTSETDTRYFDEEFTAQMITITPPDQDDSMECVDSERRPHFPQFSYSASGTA

HCC1428 [9] = assay: Upregulation of BECN1 level in tamoxifen-induced senescent human HCC1428 cells at 1 to 5 uM by immunostaining based imaging cytometric analysis; format: functional, cell-based; details: dose 1-5 µM
CAMA-1 = assay: Induction of apoptosis in human CAMA-1 cells assessed as phosphatidylserine externalization at 1 to 5 uM incubated for 24 hrs by Annexin V-FITC staining based flow cytometric analysis; format: functional, cell-based; details: dose 1-5 µM
Mitochondrial membrane = assay: Induction of mitochondrial membrane potential depolarization in human MCF-10F cells at 5 uM incubated for 24 hrs by 7-AAD staining based flow cytometric analysis; format: cell membranes

Activity [4]: inactive
Activity [5]: inactive
Activity [8]: Active
Activity (Mitochondrial membrane): inactive
Compound: CC(=O)Oc1ccc2c(=O)c(OCCCC[P+](c3ccccc3)(c3ccccc3)c3ccccc3)c(-c3ccc4c(c3)OC(c3ccccc3)(c3ccccc3)O4)oc2c1.[I-]
Activity (ZR-75-30 [1]): Active
Activity (HCC1500 [2]): Active
Activity (ZR-75-30 [3]): Active
Activity (HCC1428 [6]): Active
Activity (HCC1500 [7]): inactive
Activity (HCC1428 [9]): inactive
Activity (CAMA-1): Active
